Test results taken from patent US20260199263A1, “Composition For The Modified Release Of Biological Polyamines, In Particular Spermidine” (GIULIANI S.P.A., priority 2022, published 2026).
Converted amounts (≈) assume the structure as drawn. Like-named read-outs stand apart in the source and are kept apart here.

Experiments:
[1] = Solubility evaluation of PEA and SPE in water and ethanol with emulsifiers (tests A-H); assay type: physicochemical; settings: for solubility: thermodynamic from solid; for dissolution behaviour in test H: test H: 50 mg PEA + 50 mg SUC in 95% vol EtOH (about 2.5 g), then 500 mg water, then 50 mg SPE
Protocol: First of all, an evaluation of the solubility of PEA and SPE in water and ethanol was carried out in the presence of two different concentrations of the two emulsifiers.
In both test C and test D, water was added initially up to 1 ml, then to 2 ml and finally to 5 ml.
In test H, 50 mg of PEA (crushed in the mortar because it was initially in the form of flakes) was placed in a 10 ml test tube and 50 mg of SUC were added.
300 mg of water were then added. At the time of addition, cloudiness was observed, but when heated it returned to being a clear solution again. Another 200 mg of water were then added, and the same behavior was observed. This time, it was necessary to heat for a longer time to obtain a clear solution again.
1) PEA was initially present in the form of flakes. It was reduced in size in the mortar before testing.
2) Emulsifiers were added to PEA before adding solvents.

[2] = data known from the literature, cited from earlier work

solubility ([1]; ethanol, organic solvent or mixture, test G: 32 mg PEA, EtOH q.s. to 2 g, read-out: solubility of PEA in ethanol)	solubility of PEA in water ([1]; test B: 50 mg PEA, H2O q.s. to 1 g)	solubility of PEA in water with emulsifier MGE ([1]; test C: PEA/MGE=10:1 w/w, H2O up to 5 ml)	solubility of PEA in water with emulsifier SUC ([1]; test D: PEA/SUC=10:1 w/w, H2O up to 5 ml)	solubility of PEA in water with emulsifier MGE ([1]; test E: PEA/MGE 1:1 w/w)	dissolution behaviour in test H ([1]; heated)	solubility ([1]; water, test A: 50 mg SPE, H2O q.s. to 1 g, read-out: solubility of SPE in water)	SMILES	solubility of PEA in water with emulsifier SUC ([1]; test F: PEA/SUC 1:1 w/w)	Hot solubility ([1]; tests C and D, PEA in water with emulsifier 10:1 w/w, heated)	solubility in ethanol [2]	solubility in water ([2]; in words)	solubility in water [2]
16 mg/mL (≈ 53.4 mM)	insolubility	does not seem to improve the solubility	does not seem to improve the solubility	comparable to test C	perfectly clear solution	–	CCCCCCCCCCCCCCCC(=O)NCCO [PEA, N-(2-hydroxyethyl)hexadecanamide]	appears to increase slightly, but not sufficiently	does not appear to have significant improvements	16 mg/mL (≈ 53.4 mM)	insoluble	–
–	–	–	–	–	dissolved immediately	50 mg/mL	NCCCCNCCCN [SPE, N-(3-aminopropyl)butane-1,4-diamine·3HCl]	–	–	–	–	50 mg/mL
